Experimental data reported in patent US10696692B2, “Amido-benzyl sulfone and sulfoxide derivates” (Forma TM, LLC, priority 2012, dated 2020).
pIC50: −log10 of the molar value. Where two headings read alike, the source gives them in different places.

Key:
A2780 cells = experiment: Assay 2: In-Vitro Cell Proliferation Assay (A2780 cells, SRB readout, 72 hours); assay type: cell-based; settings: A2780 cells, 72 hours, SRB, read-out: Cell Proliferation (IC50);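 note: viable cells counted via sulforhodamine B staining, absorbance at 570 nm, after 72 h exposure at 37 °C, DMSO 0.1% as control, media-only background subtracted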
NAMPT = NAMPT (Homo sapiens (Human), UniProt P43490); experiment: Assay 1: Biochemical Inhibition Assay (NAMPT enzymatic reaction, NMN quantified by mass spectrometry); settings: read-out: Biochemical (IC50);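 note: recombinant His-tagged human NAMPT preincubated with compound 15 min, then reacted 30 min at rt with 1 µM NAM, 100 µM PRPP, 2.5 mM ATP, NMN product read by RapidFire MS, normalized to L-Cystathionine internal standard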
Chain of NAMPT (P43490 whole entry): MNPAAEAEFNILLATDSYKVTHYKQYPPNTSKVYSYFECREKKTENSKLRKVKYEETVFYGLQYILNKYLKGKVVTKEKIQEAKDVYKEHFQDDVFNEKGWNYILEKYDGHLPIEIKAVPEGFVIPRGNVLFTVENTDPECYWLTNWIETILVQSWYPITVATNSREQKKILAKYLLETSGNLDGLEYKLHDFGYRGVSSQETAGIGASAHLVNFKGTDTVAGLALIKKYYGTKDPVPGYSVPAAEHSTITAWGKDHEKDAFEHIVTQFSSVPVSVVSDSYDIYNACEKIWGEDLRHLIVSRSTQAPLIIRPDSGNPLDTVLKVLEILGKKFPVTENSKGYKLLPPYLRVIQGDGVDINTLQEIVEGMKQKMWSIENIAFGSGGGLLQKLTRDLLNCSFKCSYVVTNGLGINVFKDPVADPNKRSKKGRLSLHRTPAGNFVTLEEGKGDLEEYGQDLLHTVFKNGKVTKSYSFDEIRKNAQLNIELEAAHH

Row | SMILES | pIC50 (A2780 cells; Homo sapiens, A2780, 72 h) | pIC50 (NAMPT) | pIC50 (A2780 cells)
1 | O=C(NCc1ccc(S(=O)(=O)N2C[C@@H]3CC(F)(F)C[C@@H]3C2)cc1)c1ccc2nccn2c1 [Example 70, cis-Imidazo[1,2-a]pyridine-6-carboxylic acid 4-((3aR,6aS)-5,5-difluoro-hexahydro-cyclopenta[c]pyrrole-2-sulfonyl)-benzylamide] | 8.10 | 8.19 | –
2 | O=C(NCc1ccc(S(=O)(=O)N2CC3CCOC3C2)cc1)c1ccc2nccn2c1 (stereo not shown) [Example 72, Imidazo[1,2-a]pyridine-6-carboxylic acid 4-(hexahydro-furo[2,3-c]pyrrole-5-sulfonyl)-benzylamide] | 8.24 | 7.84 | –
3 | O=C(NCc1ccc(S(=O)(=O)[C@H]2CCOC2)cc1)c1cnc2nccn2c1 [Example 76, Imidazo[1,2-a]pyrimidine-6-carboxylic acid 4-[(S)-(tetrahydro-furan-3-yl)sulfonyl]-benzylamide] | – | 8.01 | 6.37
4 | O=C(NCc1ccc(S(=O)(=O)C2CCN(C3CCOCC3)CC2)cc1)c1cnc2nccn2c1 [Example 78, Imidazo[1,2-a]pyrimidine-6-carboxylic acid 4-[1-(tetrahydro-pyran-4-yl)-piperidine-4-sulfonyl]-benzylamide] | – | 8.40 | 7.32
5 | O=C(NCc1ccc(S(=O)(=O)[C@@H]2CCOC2)cc1)c1cnc2nccn2c1 [Example 80, Imidazo[1,2-a]pyrimidine-6-carboxylic acid 4-[(R)-(tetrahydro-furan-3-yl)sulfonyl]-benzylamide] | – | 8.05 | 6.34
6 | O=C(NCc1ccc(S(=O)(=O)N2CCC[C@@H](O)C2)cc1)c1cc2ccncc2o1 [Example 82, Furo[2,3-c]pyridine-2-carboxylic acid 4-((R)-3-hydroxy-piperidine-1-sulfonyl)-benzylamide] | – | 7.58 | 7.46
7 | C[C@@H]1CN(S(=O)(=O)c2ccc(CNC(=O)c3ccc4nccn4c3)cc2)C[C@H](C)N1CC(F)(F)F [Example 83, Imidazo[1,2-a]pyridine-6-carboxylic acid 4-[(3R,5S)-3,5-dimethyl-4-(2,2,2-trifluoro-ethyl)-piperazine-1-sulfonyl]-benzylamide] | 8.59 | 8.11 | –
8 | O=C(NCc1ccc(S(=O)(=O)N2C[C@@H]3C[C@H]2CO3)cc1)c1ccc2nccn2c1 [Example 84, Imidazo[1,2-a]pyridine-6-carboxylic acid 4-[(1S,4S)-(2-oxa-5-aza-bicyclo[2.2.1]hept-5-yl)sulfonyl]-benzylamide] | 7.78 | 7.43 | –
9 | CC(=O)N1CCC(S(=O)(=O)c2ccc(CNC(=O)c3cnc4nccn4c3)cc2)CC1 [Example 86, Imidazo[1,2-a]pyrimidine-6-carboxylic acid 4-(1-acetyl-piperidine-4-sulfonyl)-benzylamide] | – | 8.29 | 6.28
10 | O=C(NCc1ccc(S(=O)(=O)[C@@H]2CCOC2)cc1)c1cnc2[nH]ncc2c1 [Example 90, 1H-Pyrazolo[3,4-b]pyridine-5-carboxylic acid 4-[(R)-(tetrahydro-furan-3-yl)sulfonyl]-benzylamide] | – | 6.64 | 5.74
11 | O=C(NCc1ccc(S(=O)(=O)N2CCN(C3COC3)CC2)cc1)c1ccc2nccn2c1 [Example 92, Imidazo[1,2-a]pyridine-6-carboxylic acid 4-(4-oxetan-3-yl-piperazine-1-sulfonyl)-benzylamide] | 8.12 | 7.53 | –
12 | CC(=O)N1CCN(S(=O)(=O)c2ccc(CNC(=O)c3ccc4nccn4c3)cc2)CC1 [Example 93, Imidazo[1,2-a]pyridine-6-carboxylic acid 4-(4-acetyl-piperazine-1-sulfonyl)-benzylamide] | 7.89 | 7.65 | –
13 | O=C(NCc1ccc(S(=O)(=O)N2CCN(CCO)CC2)cc1)c1ccc2nccn2c1 [Example 94, Imidazo[1,2-a]pyridine-6-carboxylic acid 4-[4-(2-hydroxy-ethyl)-piperazine-1-sulfonyl]-benzylamide] | 7.54 | 7.12 | –
14 | N#CC1CCN(S(=O)(=O)c2ccc(CNC(=O)c3ccc4nccn4c3)cc2)CC1 [Example 95, Imidazo[1,2-a]pyridine-6-carboxylic acid 4-(4-cyano-piperidine-1-sulfonyl)-benzylamide] | 7.47 | 7.39 | –
15 | O=C(NCc1ccc(S(=O)(=O)N2CCC(CO)CC2)cc1)c1ccc2nccn2c1 [Example 96, Imidazo[1,2-a]pyridine-6-carboxylic acid 4-(4-hydroxymethyl-piperidine-1-sulfonyl)-benzylamide] | 8.03 | 7.61 | –
16 | O=C(NCc1ccc(S(=O)(=O)N2CCC(N3CCCC3)CC2)cc1)c1ccc2nccn2c1 [Example 97, Imidazo[1,2-a]pyridine-6-carboxylic acid 4-(4-pyrrolidin-1-yl-piperidine-1-sulfonyl)-benzylamide] | 8.27 | 7.84 | –

Row | SMILES | pIC50 (A2780 cells; Homo sapiens, A2780, 72 h) | pIC50 (NAMPT) | pIC50 (A2780 cells)
17 | COCCN1CCN(S(=O)(=O)c2ccc(CNC(=O)c3ccc4nccn4c3)cc2)CC1 [Example 98, Imidazo[1,2-a]pyridine-6-carboxylic acid 4-[4-(2-methoxy-ethyl)-piperazine-1-sulfonyl]-benzylamide] | 8.00 | 7.34 | –
18 | O=C(NCc1ccc(S(=O)(=O)N2CCC(F)(F)C2)cc1)c1ccc2nccn2c1 [Example 99, Imidazo[1,2-a]pyridine-6-carboxylic acid 4-(3,3-difluoro-pyrrolidine-1-sulfonyl)-benzylamide] | 8.11 | 7.80 | –
19 | CC(=O)N1CCCN(S(=O)(=O)c2ccc(CNC(=O)c3ccc4nccn4c3)cc2)CC1 [Example 100, Imidazo[1,2-a]pyridine-6-carboxylic acid 4-(4-acetyl-[1,4]diazepane-1-suIfonyl)-benzylamide] | 7.60 | 7.59 | –
20 | CC(C)(C)OC(=O)N1CCC2(CCN(S(=O)(=O)c3ccc(CNC(=O)c4ccc5nccn5c4)cc3)CC2)C1 [Example 103, 8-(4-{[(Imidazo[1,2-a]pyridine-6-carbonyl)-amino]-methyl}-benzenesulfonyl)-2,8-diaza-spiro[4.5]decane-2-carboxylic acid tert-butyl ester] | 7.40 | 7.53 | –
21 | N#CCCN1CCN(S(=O)(=O)c2ccc(CNC(=O)c3ccc4nccn4c3)cc2)CC1 [Example 104, Imidazo[1,2-a]pyridine-6-carboxylic acid 4-[4-(2-cyano-ethyl)-piperazine-1-sulfonyl]-benzylamide] | 8.06 | 7.57 | –
22 | CN(C)CCN1CCN(S(=O)(=O)c2ccc(CNC(=O)c3ccc4nccn4c3)cc2)CC1 [Example 105, Imidazo[1,2-a]pyridine-6-carboxylic acid 4-[4-(2-dimethylamino-ethyl)-piperazine-1-sulfonyl]-benzylamide] | 8.05 | 8.17 | –
23 | O=C(NCc1ccc(S(=O)(=O)N2CCC[C@@H]2CO)cc1)c1ccc2nccn2c1 [Example 106, Imidazo[1,2-a]pyridine-6-carboxylic acid 4-((R)-2-hydroxymethyl-pyrrolidine-1-sulfonyl)-benzylamide] | 7.24 | 7.31 | –
24 | O=C(NCc1ccc(S(=O)(=O)N2CCC[C@H]2CO)cc1)c1ccc2nccn2c1 [Example 107, Imidazo[1,2-a]pyridine-6-carboxylic acid 4-((S)-2-hydroxymethyl-pyrrolidine-1-sulfonyl)-benzylamide] | 7.81 | 7.63 | –
25 | CN(C)[C@H]1CCN(S(=O)(=O)c2ccc(CNC(=O)c3ccc4nccn4c3)cc2)C1 [Example 108, Imidazo[1,2-a]pyridine-6-carboxylic acid 4-((S)-3-dimethylamino-pyrrolidine-1-sulfonyl)-benzylamide] | 8.28 | 7.59 | –
26 | CN1CCN(C(=O)C2CCN(S(=O)(=O)c3ccc(CNC(=O)c4ccc5nccn5c4)cc3)CC2)CC1 [Example 109, Imidazo[1,2-a]pyridine-6-carboxylic acid 4-[4-(4-methyl-piperazine-1-carbonyl)-piperidine-1-sulfonyl]-benzylamide] | 8.41 | 8.57 | –
27 | CN1CCN(C2CCN(S(=O)(=O)c3ccc(CNC(=O)c4ccc5nccn5c4)cc3)CC2)CC1 [Example 110, Imidazo[1,2-a]pyridine-6-carboxylic acid 4-[4-(4-methyl-piperazin-1-yl)-piperidine-1-sulfonyl]-benzylamide] | 8.48 | 8.51 | –
28 | O=C(NCc1ccc(S(=O)(=O)N2CCC(F)(F)CC2)cc1)c1ccc2nccn2c1 [Example 112, Imidazo[1,2-a]pyridine-6-carboxylic acid 4-(4,4-difluoro-piperidine-1-sulfonyl)-benzylamide] | 7.69 | 7.59 | –
29 | CC(=O)N1CCC(S(=O)(=O)c2ccc(CNC(=O)c3cc4cnccc4[nH]3)cc2)CC1 [Example 113, 1H-Pyrrolo[3,2-c]pyridine-2-carboxylic acid 4-(1-acetyl-piperidine-4-sulfonyl)-benzylamide] | 7.35 | 7.19 | –
30 | O=C(NCc1ccc(S(=O)(=O)C2CCN(C3COC3)CC2)cc1)c1ccc2nccn2c1 [Example 114, Imidazo[1,2-a]pyridine-6-carboxylic acid 4-(l-oxetan-3-yl-piperidine-4-sulfonyl)-benzylamide] | 8.25 | 7.71 | –
31 | O=C(NCc1ccc(S(=O)(=O)C2CCN(C3COC3)CC2)cc1)c1cc2cnccc2[nH]1 [Example 115, 1H-Pyrrolo[3,2-c]pyridine-2-carboxylic acid 4-(1-oxetan-3-yl-piperidine-4-sulfonyl)-benzylamide] | 7.94 | 7.43 | –
32 | O=C(NCc1ccc(S(=O)(=O)N2CCN(C3COC3)CC2)cc1)c1cnc2[nH]ncc2c1 [Example 117, 1H-Pyrazolo[3,4-b]pyridine-5-carboxylic acid 4-(4-oxetan-3-yl-piperazine-1-sulfonyl)-benzylamide] | 7.35 | 6.64 | –
